Where two headings read alike, the source gives them in different places.
Tests used:
[1] = Drug content (% label claim) of sirolimus solutions with antioxidants, HPLC assay
Protocol: Screening experiments were performed to evaluate the solubility of various antioxidants in […] (THF) solutions containing sirolimus and the percentage of antioxidant required to prevent oxidation of sirolimus alone and in a basecoat polymeric matrix. THF is the solvent in which sirolimus may be dissolved. It is important to note that other solvents may be utilized. Two sets of controls were utilized. Control #1 comprises solutions of THF and sirolimus and/or polymers with no antioxidant, and Control #2 comprises solutions of THF and sirolimus and/or polymers, wherein the THF contains a label claim of 250 ppm of BHT as a stabilizer from the vendor of THF. In other words, the BHT is an added constituent of the THF solvent to prevent oxidation of the solvent. All percentages are given as weight/volume.
Table 11, shown below, identifies the samples for evaluation. All percentages are given as weight/volume. The samples in Table 11 contain no polymer. Table 12, also shown below, identifies the samples for evaluation with the solutions now comprising polymers, including PBMA and PEVA as described herein.
(60° C.). The samples were evaluated after five (5) days utilizing a drug testing assay for silolimus. In the exemplary embodiment, a HPLC assay was utilized.
Additional samples were tested under ambient conditions, rather than at 60° C., and using the same compositions; however, the test period was expanded to seven weeks.

[2] = Percent drug content change on coated cobalt-chromium 18 mm stent; format: physicochemical; conditions: 0.02 weight percent BHT per total basecoat solids; 8 weeks and 12 weeks, ambient conditions (25° C.)
From the text: Referring to FIG. 75, there is illustrated in graphical format, the results of the same drug screening as described above with the solution applied to a cobalt-chromium, 18 mm stent. In this test, two sets of solution samples were utilized, one with sirolimus and polymer solution containing the antioxidant and one with sirolimus and polymer solution containing no antioxidant. The antioxidant utilized was 0.02 weight percent BHT per total basecoat solids.
The test was utilized to determine the percent drug content change over a time period of 0 to 12 weeks under two conditions; namely, 40° C. with 75 percent relative humidity, and ambient conditions (25° C.).

[3] = Drug concentration in liquid formulations by liquid chromatography / HPLC; format: physicochemical
From the text: In accordance with exemplary embodiments of the present invention, a series of liquid formulations were developed for the local or regional delivery of water insoluble compounds such as sirolimus and its analogs, including CCI-779, ABT-578 and everolimus, through weeping balloons and catheter injection needles. […] These liquid formulations increase the apparent solubility of the pharmacologically active but water insoluble compounds by two to four orders of magnitude as compared to the solubility limits of the compounds in water. These liquid formulations rely on the use of a very small amount of organic solvents such as Ethanol (typically less than two percent) and a larger amount of safe amphiphilic (of or relating to a molecule having a polar, water soluble group attached to a non-polar, water insoluble […]) excipients such as polyethylene glycol (PEG 200, PEG 400) and vitamin E TPGS to enhance the solubility of the compounds. These liquid formulations of highly water insoluble compounds are stable and readily flowable at room temperature. Certain excipients, such as Vitamin E TPGS and BHT may be utilized to enhance the storage stability of sirolimus compounds through their anti-oxidation properties. […]

[4] = In vivo release kinetics from polymeric stent coatings, porcine pharmacokinetics studies
From the text: The topcoat is two hundred micro grams. […] Cladribine (2-chlorodeoxyadenosine or 2-CdA) is the 2-chloro-2′-deoxy derivative of the purine nucleoside, adenosine. Cladribine is resistant to degradation by adenosine deaminase, one of two intracellular adenine nucleotide regulatory enzymes, found in most cells. The other enzyme, 5′-nucleotidase, is present in variable amounts in different cell types (Carson et al., 1983). […] Thus, in cells such as leukocytes, which contain a high ratio (>0.04) of deoxycytidine kinase to 5′-nucleotidase, 2-CdA and its subsequent metabolites will tend to accumulate in pharmacological concentrations (Carson et al., 1983). Such high levels of a nucleoside triphosphate are known to inhibit the enzyme ribonucleotide reductase in rapidly dividing cells, thus preventing synthesis of deoxynucleotides required for DNA synthesis.
FIG. 61 is a graphical representation of the in vivo release kinetics of cladribine from a polymeric coating on Bx Velocity® stents, available from Cordis Corporation, implanted in a Yorkshire pig. […] The total weight of the topcoat is three hundred micrograms.
(§1) The basecoat is applied to Bx Velocity® stents and implanted into Yorkshire pigs.
as §1

[5] = test system: human smooth muscle cells; test: Cladribine Example: PDGF-stimulated cell proliferation, cell count on day six; format: cell-based; conditions: from IC50 values
Protocol: To assess the ability of cladribine to prevent cell proliferation, human smooth muscle or endothelial cells (Clonetics, Walkersville, Md.) were seeded at a density of 2000 cells/cm^2 (approximately 3600 cells/well) into each well of 12-well plates and cultured with 1.5 ml of growth medium containing five percent fetal calf serum (FCS). After twenty-four hours, the growth medium was changed and fresh medium containing 10 ng/ml platelet-derived growth factor AB (PDGF AB; LIFE Technologies), as well as various concentrations of cladribine (0.001-10,000 nM) were added with triplicate wells. Medium was replaced with fresh cladribine-containing medium after three days. On day six, cells were detached by trypsinization to yield a cell suspension, lightly centrifuged to pellet and then counted manually using a Neubauer hemocytometer system. Cell viability was assessed by trypan blue exclusion.

[6] = test system: human coronary artery smooth muscle cells; test: Anti-proliferative activity in non-synchronized cultured cells stimulated with two percent fetal bovine serum; format: cell-based; conditions: for effect on the anti-proliferative activity of rapamycin: non-synchronized cells, mycophenolic acid zero to one thousand nanomolar, cladribine zero to nine hundred nanomolar
From the text: The multiple curves represent various concentrations of mycophenolic acid ranging from zero to one thousand nanomolar concentrations.
FIG. 58 illustrates, in graphical format, the anti-proliferative activity of cladribine in non-synchronized cultured human coronary artery smooth muscle cells stimulated with two percent fetal bovine serum.
The multiple curves represent various concentrations of cladribine ranging from zero to nine hundred nanomolar concentrations.

[7] = test system: human coronary artery smooth muscle cells; test: Anti-proliferative activity in synchronized cultured cells stimulated with two percent fetal bovine serum; format: cell-based; conditions: for effect on the anti-proliferative activity of rapamycin: topotecan zero to three hundred nanomolar, etoposide zero to eight hundred nanomolar, Panzem zero to 100 micromolar
From the text: (§2) The multiple curves represent various concentrations of topotecan ranging from zero to three hundred nanomolar concentrations.
(§3) The multiple curves represent various concentrations of etoposide ranging from zero to eight hundred nanomolar concentrations.
The multiple curves represent various concentrations of Panzem® ranging from zero to 100 micromolar concentrations.

[8] = test system: human coronary artery smooth muscle cell survival; conditions: concentrations up to 30,000.00 nanomolar
From the text: In vitro cytotoxicity tests or assays may be utilized to determine if drugs, agents and/or compounds are potentially toxic and the level of toxicity. Essentially, in vitro cytotoxicity assays determine acute necrotic effects by a drug causing direct cellular damage. The idea behind these assays is that toxic chemicals affect basic functions of cells which are common to all cells. […] There are a number of different assays that may be utilized. In the present invention, the cytotoxicity assay utilized is based upon the measurement of cellular metabolic activity. A reduction in metabolic activity is an indication of cellular damage. Tests that can measure metabolic function measure cellular ATP levels or mitochondrial activity via MTS metabolism. FIG. 69 is a graphical representation of the results of an MTS assay of Panzem®.

cell viability = test: Cell viability assay; format: cell-based
From the text: as §2, §3

tumor cell lines = conditions: Woo et al. 2002; cited from earlier work
[9] = test system: human coronary artery smooth muscle cell proliferation; test: In vitro cell culture study of coronary artery smooth muscle cell proliferation; format: cell-based
From the text: FIG. 51 is a graph of the inhibition of coronary artery smooth muscle cells by trichostatin A in a cell culture study.

## O=C1O[C@H]([C@@H](O)CO)C(O)=C1O [Ascorbic Acid]
[1]
  protection of sirolimus against degradation: significant protection

## Cc1cc(C(C)(C)C)c(O)c(C(C)(C)C)c1 [BHT, Butylated Hydroxytoluene]
[1]
  protection of sirolimus against degradation: significant protection
[2]
  percent drug content change on stent: lessens drug degradation

## CO[C@H]1C[C@@H]2CC[C@@H](C)[C@@](O)(O2)C(=O)C(=O)N2CCCC[C@H]2C(=O)O[C@H]([C@H](C)C[C@@H]2CC[C@@H](OC(=O)C(C)(CO)CO)[C@H](OC)C2)CC(=O)[C@H](C)/C=C(\C)[C@@H](O)[C@@H](OC)C(=O)[C@H](C)C[C@H](C)/C=C/C=C/C=C/1C [CCI-779]
[3]; water and ethanol (less than two percent) as co-solvents, Vitamin E TPGS as excipient
  concentration in the final solution (HPLC assay): 15000 µg/mL

## Nc1nc(Cl)nc2c1ncn2[C@H]1C[C@H](O)[C@@H](CO)O1 [Cladribine, 2-chlorodeoxyadenosine]
[4]; EVA/BMA basecoat, BMA topcoat, Bx Velocity stents, Yorkshire pigs
  in vivo elution from coating relative to rapamycin: elutes more rapidly than rapamycin
[4]; PVDF/HFP 85/15 basecoat and topcoat, Bx Velocity stents, Yorkshire pig, after the first day
  in vivo elution from coating: levels off significantly
[5]
  potency on smooth muscle cells relative to endothelial cells: approximately twice as potent
[6]
  effect on the anti-proliferative activity of rapamycin: increases the percent inhibition of rapamycin alone
[6]; non-synchronized, two percent fetal bovine serum
  inhibition of human coronary artery smooth muscle cell proliferation: completely inhibits

## COc1cc2c(cc1O)CC[C@@H]1[C@@H]2CC[C@]2(C)[C@@H](O)CC[C@@H]12 [Panzem®, 2-methoxyestradiol]
[7]
  effect on the anti-proliferative activity of rapamycin: increases the percent of inhibition of rapamycin alone
[7]; two percent fetal bovine serum
  anti-proliferative activity: extremely effective inhibitor
[8]
  cytotoxicity (MTS assay): do not reduce human coronary artery smooth muscle cell survival

## CO[C@H]1C[C@@H]2CC[C@@H](C)[C@@](O)(O2)C(=O)C(=O)N2CCCC[C@H]2C(=O)O[C@H]([C@H](C)C[C@@H]2CC[C@@H](O)[C@H](OC)C2)CC(=O)[C@H](C)/C=C(\C)[C@@H](O)[C@@H](OC)C(=O)[C@H](C)C[C@H](C)/C=C/C=C/C=C/1C [Rapamycin, rapamycin]
[3]; 4 mg/ml formulation with PEG 200, ethanol and water
  concentration relative to the solubility of sirolimus in water: four hundred to about one thousand
[4]; pig, in vivo
  in vivo release rate from coating: slower release rate than that of mycophenolic acid

## COc1cc([C@@H]2c3cc4c(cc3[C@@H](O[C@@H]3O[C@@H]5CO[C@@H](C)O[C@H]5[C@H](O)[C@H]3O)[C@H]3COC(=O)[C@H]23)OCO4)cc(OC)c1O [etoposide]
[7]
  effect on the anti-proliferative activity of rapamycin: increases the percent inhibition of rapamycin alone
Cell viability; concentrations up to ten micromolar
  cytotoxicity: non-cytotoxic

## COc1c(C)c2c(c(O)c1C/C=C(\C)CCC(=O)O)C(=O)OC2 [mycophenolic acid]
[6]
  effect on the anti-proliferative activity of rapamycin: potentiates the anti-proliferative activity of rapamycin

## CC[C@@]1(O)C(=O)OCc2c1cc1n(c2=O)Cc2cc3c(CN(C)C)c(O)ccc3nc2-1 [topotecan]
[7]
  effect on the anti-proliferative activity of rapamycin: increases the percent inhibition of rapamycin alone
Cell viability; concentrations up to one micromolar
  cytotoxicity: non-cytotoxic

## CC(/C=C/C(=O)NO)=C\[C@@H](C)C(=O)c1ccc(N(C)C)cc1 [trichostatin A]
Tumor cell lines
  anti-proliferative IC50's: low nM range
[9]
  inhibition of human coronary artery smooth muscle cell proliferation: completely inhibit
[9]; human coronary artery smooth muscle cells, read-out: anti-proliferative IC50
  IC50: ~6 nM

## Tocopherol
[1]; five days at 60° C.
  protection of sirolimus against degradation: significant protection
[1]; four weeks at 60° C., higher percent concentrations of antioxidant
  protection of sirolimus against degradation: significant protection

Reference: patent US8007737B2, “Use of antioxidants to prevent oxidation and reduce drug degradation in drug eluting medical devices” (Wyeth, priority 2004, dated 2011)
